Drawing on PubChem BioAssay (NCI), this text covers GI50 and TGI for 13 compounds.

The structures appear in SMILES notation.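 These data come from cells grown in 96-well plates and exposed to compound for 48 hours at five concentrations. GI50: concentration for 50% inhibition of growth. The concentration for full growth arrest is given as TGI.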

Some test systems named below: HCC-2998 colon; LOX IMVI melanoma; UO-31 renal; OVCAR-4 ovarian; MDA-MB-435; A498 renal; MCF7 breast; SW-620 colon; NCI-H522 lung; K-562 leukemia.
Common to all, as to test: growth of human tumour cells (NCI), 48 h

On to `NC(=O)c1ccc(N(C(N)=O)c2c(F)cccc2F)nc1-c1ccc(F)cc1F`, for which the GI50 was above 100 µM in the assay with HCC-2998 colon; above 100 µM in the assay with LOX IMVI melanoma; above 100 µM with UO-31 renal; above 100 µM in the assay with OVCAR-4 ovarian; above 100 µM with MDA-MB-435; above 45.4 µM with A498 renal. Besides, the GI50 in the assay on MCF7 breast, in the assay on SW-620 colon, with NCI-H522 lung and with K-562 leukemia was above 100 µM each time. Further, the TGI with HCC-2998 colon, in the assay on LOX IMVI melanoma, with UO-31 renal, in the assay on OVCAR-4 ovarian, in the assay on MDA-MB-435 and in the assay with A498 renal was above 100 µM throughout. The TGI in the assay on MCF7 breast, in the assay on SW-620 colon, in the assay on NCI-H522 lung and in the assay on K-562 leukemia was above 100 µM throughout.
`C=CC(C)(O)CC/C=C(\CO)C(=O)OC1C(C)OC(O[C@](C)(C=C)CC/C=C(\CO)C(=O)O[C@H]2C[C@@]3(C(=O)OC4OC(CO)C(O)C(O)C4OC4OC(C)C(OC5OC(CO)C(O)C5O)C(OC5OC(CO)C(O)C(O)C5O)C4O)C(CC2(C)C)C2=CCC4[C@@]5(C)CC[C@H](OC6OC(COC7OC(C)C(O)C(O)C7OC7OCC(O)C(O)C7O)C(O)C(O)C6NC(C)=O)C(C)(C)C5CC[C@@]4(C)[C@]2(C)C[C@H]3O)C(O)C1O` (some centres undefined): the GI50 in the assay on HCC-2998 colon was 0.0688 µM; in the assay on LOX IMVI melanoma it was 0.162 µM; in the assay on UO-31 renal, 0.234 µM; in the assay on OVCAR-4 ovarian, 0.11 µM; in the assay on MDA-MB-435, 0.0978 µM; with A498 renal, 0.142 µM. In addition, the GI50 was 0.822 µM in the assay with MCF7 breast, 0.143 µM with SW-620 colon, 0.341 µM in the assay with NCI-H522 lung and 7.13 µM in the assay with K-562 leukemia. The TGI with HCC-2998 colon came out at 0.195 µM; in the assay with LOX IMVI melanoma, 0.82 µM; in the assay with UO-31 renal it was 0.966 µM; in the assay with OVCAR-4 ovarian, 0.47 µM; in the assay with MDA-MB-435, 0.382 µM; with A498 renal, 0.585 µM. The TGI in the assay on MCF7 breast turned out to be 4.1 µM; in the assay on SW-620 colon, 4.27 µM; with NCI-H522 lung, 1.61 µM; with K-562 leukemia, 16.7 µM.
Consider `O=C(CCCCCCCCC(=O)N/N=C\c1cc(Cl)ccc1O)N/N=C\c1cc(Cl)ccc1O`, for which the GI50 was 3.32 µM with HCC-2998 colon; 0.149 µM with LOX IMVI melanoma; 0.152 µM in the assay with UO-31 renal; 0.315 µM with OVCAR-4 ovarian; 0.625 µM in the assay with MDA-MB-435; above 33.1 µM in the assay on A498 renal. For the same compound, the GI50 is 0.364 µM with MCF7 breast, 0.916 µM with SW-620 colon, 0.31 µM in the assay with NCI-H522 lung and 0.38 µM in the assay with K-562 leukemia. Moreover, the TGI is above 100 µM in the assay with HCC-2998 colon; 7.41 µM in the assay on LOX IMVI melanoma; above 100 µM with UO-31 renal; above 100 µM in the assay with OVCAR-4 ovarian; above 100 µM with MDA-MB-435; above 80.9 µM with A498 renal. Further, the TGI was above 100 µM in the assay on MCF7 breast, above 100 µM in the assay on SW-620 colon, above 100 µM in the assay with NCI-H522 lung and 10.2 µM in the assay with K-562 leukemia.
Consider `NNC(=O)C(O)C(O)C(=O)NN` (centres undefined), for which the TGI in the assay on HCC-2998 colon, in the assay on LOX IMVI melanoma, in the assay on UO-31 renal, in the assay with OVCAR-4 ovarian, in the assay with MDA-MB-435 and in the assay on A498 renal was above 100 µM in each case. Further, the TGI in the assay on MCF7 breast, with SW-620 colon, with NCI-H522 lung and in the assay with K-562 leukemia was above 100 µM throughout.
For the compound `COc1cccc2c1cc1c3c(cc4c(c32)OCO4)C(=O)N1`, the GI50 was 7.82 µM with HCC-2998 colon; 4.27 µM with LOX IMVI melanoma; 3.47 µM in the assay on UO-31 renal; 2.61 µM in the assay on OVCAR-4 ovarian; 10.9 µM in the assay with MDA-MB-435; 0.0914 µM with A498 renal. The GI50 in the assay with MCF7 breast was 2.96 µM; in the assay with SW-620 colon, 4.4 µM; in the assay with NCI-H522 lung, 2.62 µM; in the assay on K-562 leukemia it was 8.89 µM. Also, the TGI is above 100 µM in the assay on HCC-2998 colon; 23.3 µM in the assay on LOX IMVI melanoma; 28.9 µM with UO-31 renal; 7.26 µM in the assay with OVCAR-4 ovarian; above 100 µM in the assay on MDA-MB-435; 4 µM in the assay on A498 renal. Besides, the TGI was 11.1 µM in the assay with MCF7 breast, above 100 µM in the assay on SW-620 colon, 8.96 µM in the assay with NCI-H522 lung and above 100 µM in the assay with K-562 leukemia.
On to `CCCCCCCCCCCCCCCCOCC(O)CO` (centres undefined), for which the TGI came out at 32.2 µM in the assay on HCC-2998 colon; 33.4 µM with LOX IMVI melanoma; 32.4 µM in the assay on UO-31 renal; 46.1 µM in the assay with OVCAR-4 ovarian; 33.4 µM in the assay on MDA-MB-435; 34.5 µM in the assay with A498 renal. In addition, the results for the TGI in the assay with MCF7 breast, with SW-620 colon and in the assay with NCI-H522 lung were 38.1 µM, 41.2 µM and 33.2 µM, respectively.
`Cc1ccc(-c2n[nH]c(=O)c3noc(-c4ccc(C)cc4)c23)cc1`: the GI50 in the assay with HCC-2998 colon is 3.89 µM; in the assay with LOX IMVI melanoma, 0.677 µM; with UO-31 renal, 1.26 µM; in the assay on OVCAR-4 ovarian, 10.1 µM; in the assay on MDA-MB-435 it was 0.235 µM; in the assay on A498 renal, 1.27 µM. The GI50 in the assay with MCF7 breast is 0.565 µM; with SW-620 colon, 0.427 µM; in the assay on NCI-H522 lung, 0.411 µM; in the assay on K-562 leukemia, 0.383 µM. Further, the TGI with HCC-2998 colon is above 100 µM; in the assay with LOX IMVI melanoma, above 100 µM; in the assay on UO-31 renal it was 44.9 µM; in the assay on OVCAR-4 ovarian, 43.6 µM; with MDA-MB-435 it was 0.651 µM; with A498 renal, 6.71 µM. For the same compound, the TGI in the assay with MCF7 breast is above 100 µM; with SW-620 colon, above 100 µM; in the assay on NCI-H522 lung, 4.98 µM; in the assay on K-562 leukemia, above 100 µM.
On to `COc1cc(-c2cc(=O)c3c(O)c(OC)c(OC)c(OC)c3o2)cc(OC)c1OC`, for which the TGI in the assay with HCC-2998 colon is above 100 µM; in the assay on LOX IMVI melanoma, above 100 µM; in the assay on UO-31 renal it was above 100 µM; in the assay on OVCAR-4 ovarian, above 100 µM; with MDA-MB-435 it was above 100 µM; in the assay with A498 renal, 9.14 µM. Further, the figures for the TGI in the assay with MCF7 breast, in the assay with NCI-H522 lung and in the assay with K-562 leukemia were above 100 µM, 98.6 µM and above 100 µM, respectively.
With `CCCCCCCCCCSC(=N)N`, the GI50 in the assay on HCC-2998 colon was 1.72 µM; in the assay on LOX IMVI melanoma, 2.76 µM; in the assay with UO-31 renal, 2.61 µM; in the assay on OVCAR-4 ovarian it was 3.58 µM; in the assay with MDA-MB-435, 1.77 µM; with A498 renal it was 4.69 µM. In addition, the GI50 in the assay on MCF7 breast is 2.19 µM; in the assay with SW-620 colon it was 1.7 µM; with NCI-H522 lung it was 1.56 µM. Further, the TGI with HCC-2998 colon was determined as 3.31 µM; in the assay on LOX IMVI melanoma, 9.37 µM; in the assay on UO-31 renal, 12.4 µM; in the assay on OVCAR-4 ovarian, 17.6 µM; in the assay with MDA-MB-435 it was 4.01 µM; in the assay on A498 renal, 19.3 µM. The values for the TGI in the assay on MCF7 breast, in the assay with SW-620 colon and in the assay on NCI-H522 lung were 6.03 µM, 3.52 µM and 3.47 µM, respectively.
Consider `CN(C(=O)CNC(=O)/C=C/c1cccc(Cl)c1)C1CCS(=O)(=O)CC1`, for which the GI50 in the assay on HCC-2998 colon is 0.663 µM; in the assay on LOX IMVI melanoma, 0.7 µM; in the assay on UO-31 renal, 47 µM; in the assay with OVCAR-4 ovarian, 5.9 µM; in the assay on MDA-MB-435 it was 2.1 µM; with A498 renal it was 0.421 µM. Also, the GI50 is 1.03 µM in the assay with MCF7 breast, 3.51 µM with SW-620 colon and 1.17 µM with NCI-H522 lung. Also, the TGI in the assay with HCC-2998 colon, with LOX IMVI melanoma, in the assay with UO-31 renal, with OVCAR-4 ovarian, in the assay on MDA-MB-435 and in the assay with A498 renal was above 100 µM each time. Further, the TGI in the assay on MCF7 breast, in the assay with SW-620 colon and with NCI-H522 lung was above 100 µM throughout.
`O=Cc1ccc(N2CCN(c3ccc(C=O)cc3)CC2)cc1`: the GI50 was 60.8 µM in the assay on HCC-2998 colon; above 100 µM in the assay with LOX IMVI melanoma; above 100 µM in the assay with UO-31 renal; 5.68 µM with OVCAR-4 ovarian; above 100 µM with MDA-MB-435; 97.7 µM in the assay with MCF7 breast. The GI50 is above 100 µM in the assay on SW-620 colon, 43.1 µM in the assay on NCI-H522 lung and above 100 µM in the assay with K-562 leukemia. In addition, the TGI in the assay on HCC-2998 colon, in the assay with LOX IMVI melanoma, in the assay with UO-31 renal, in the assay on OVCAR-4 ovarian, in the assay on MDA-MB-435 and in the assay with MCF7 breast was above 100 µM each time. In addition, the TGI with SW-620 colon, in the assay on NCI-H522 lung and in the assay on K-562 leukemia was above 100 µM each time.
Consider `Nc1ccn(C2OC(C(OC3OC(CO)C(O)C(N)C3O)C(O)C(O)C(O)C(O)CO)C(N)C(O)C2O)c(=O)n1` (centres undefined), for which the TGI was 32.9 µM in the assay on HCC-2998 colon; above 100 µM in the assay on LOX IMVI melanoma; above 100 µM in the assay on UO-31 renal; 14.8 µM in the assay on OVCAR-4 ovarian; above 100 µM in the assay on MDA-MB-435; above 100 µM in the assay on A498 renal. In addition, the values for the TGI with MCF7 breast, in the assay on SW-620 colon and with NCI-H522 lung were above 100 µM, above 100 µM and 93.5 µM, respectively.
Take `Cc1cc2nc3c4ccc(Br)cc4n(CCN(C)C)c3nc2cc1C`: the GI50 in the assay with HCC-2998 colon was 1.23 µM; in the assay with LOX IMVI melanoma, 0.532 µM; with UO-31 renal, 0.561 µM; in the assay with OVCAR-4 ovarian, 1.62 µM; in the assay with MDA-MB-435 it was 1.68 µM; in the assay with A498 renal, 1.02 µM. Moreover, the results for the GI50 with MCF7 breast, with SW-620 colon and with NCI-H522 lung were 1.17 µM, 0.478 µM and 1.99 µM, respectively. Besides, the TGI in the assay on HCC-2998 colon worked out at 2.74 µM; in the assay with LOX IMVI melanoma, 1.9 µM; in the assay with UO-31 renal, 9.5 µM; with OVCAR-4 ovarian it was 7.49 µM; with MDA-MB-435, 3.04 µM; in the assay with A498 renal, 2.54 µM. Besides, the results for the TGI in the assay on MCF7 breast, with SW-620 colon and in the assay on NCI-H522 lung were 3.06 µM, 1.84 µM and 4.66 µM, respectively.
